Reference: patent publication US20220072083A1, “COMPOSITION FOR IMPROVING OR PREVENTING NONALCOHOLIC FATTY LIVER” (KOHJIN LIFE SCIENCES CO., LTD., priority 2015, published 2022)

Tests used:
[1] = tested on: Mice (C57/B6J, 8 weeks old male) fed with high-fat food
From the text: Mice (C57/B6J, 8 weeks old male) were divided into 4 groups (5 animals each), and the first group (DB) was freely fed with ordinary food (CertifiedDiet “MF” manufactured by Oriental Yeast Co., ltd.). The second group (HFD) was freely fed with high-fat food (High Fat Diet 32, manufactured by CLEA Japan, Inc.), […].
When the mouse was 20 weeks old, the body weight, the liver weight, the serum aspartate aminotransferase (AST), the alanine aminotransferase (ALT), the serum triglyceride (TG), the free fatty acid value (FFA) and the total cholesterol value (T-cho) were measured.

[2] = tested on: subjects who had NAFLD in 31 IU/L or more of ALT
[3] = HFD6 (6 mg/kg/day) and HFD60 (60 mg/kg/day) groups in comparison to the HFD group, 20 weeks old

N[C@@H](CCC(=O)N[C@@H](CS)C(=O)NCC(=O)O)C(=O)O [glutathione]
serum AST, ALT, TG, FFA, T-cho: comparison of HFD6 group and HFD60 group ([1]; 6 versus 60 mg/kg/day glutathione): decrease dependently on the concentration
serum ALT [1, 3]: significant decrease
serum AST [1, 3]: significant decrease
serum FFA (free fatty acid value) [1, 3]: significant decrease
serum T-cho (total cholesterol value) [1, 3]: significant decrease
serum TG (triglyceride value) [1, 3]: significant decrease
deposition of fat on the liver by high-fat food ([1]; concluded from liver weight and liver/body weight ratio): suppressed
liver weight ([1]; high-fat food mice, glutathione 6 and 60 mg/kg/day in water, 20 weeks old): decreased dependently on the concentration
body weight ([1]; high-fat food mice, glutathione 6 or 60 mg/kg/day in water): decrease of the body weight was recognized
improvement of ALT after the administration in comparison to ALT before the administration (0 wk) ([2]; Case IDs 1 to 9 (group affected), at least one week after initiation of administration): ≥ 20%
FibroScan (after treatment) CAP ([2]; after treatment, oral glutathione 300 mg per day, one subject (Case ID) per table row): 280 dBe
